Measured values reported in US10208071B2, “Use of agonists of formyl peptide receptor 2 for treating ocular inflammatory diseases” (Allergan, Inc., priority 2013, dated 2019).

How the values were obtained:
FPR2 [1] = target: T1, FPR2 (Homo sapiens (Human), UniProt P25090); assay: FPR2 Ga16-CHO EC50 (efficacy), Tables 1-3; format: cell-based; conditions: for FPR2 Ga16-CHO (efficacy): efficacy in parentheses
FPR2 [2] = target: T1, FPR2; assay: FLIPR Ca+2 response, HEK-Gα16 cells stably expressing the human FPR2 receptor (Table 4); format: cell-based; conditions: for FPR2 (efficacy): efficacy in parentheses
In short: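 HEK-Gα16 cells stably expressing human FPR2, loaded with 2 μM Fluo-4 in HBSS/20 mM HEPES for 40 min at 37° C., then washed. Ligands added in HBSS/Hepes and Ca+2 responses recorded on FLIPR in relative fluorescence units.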

T1 sequence (P25090 whole entry): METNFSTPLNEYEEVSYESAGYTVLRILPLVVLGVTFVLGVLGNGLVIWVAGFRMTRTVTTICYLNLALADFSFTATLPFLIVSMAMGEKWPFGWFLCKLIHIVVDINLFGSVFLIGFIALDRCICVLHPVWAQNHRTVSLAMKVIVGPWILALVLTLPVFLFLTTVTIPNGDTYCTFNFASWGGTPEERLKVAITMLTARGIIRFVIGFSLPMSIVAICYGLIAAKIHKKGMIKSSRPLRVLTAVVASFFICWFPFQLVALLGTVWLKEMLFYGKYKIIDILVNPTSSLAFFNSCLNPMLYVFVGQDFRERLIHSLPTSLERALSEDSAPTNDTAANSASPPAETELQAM

Row | SMILES | EC50 (FPR2 [1]) | FPR2 Ga16-CHO (efficacy) (FPR2 [1]) | FPR2 (efficacy) (FPR2 [2]) | other results
1 | O=C(CN1C(=O)NC2(CCCC2)C1=O)Nc1ccc(Br)cc1 [N-(4-bromophenyl)-2-(2,4-dioxo-1,3-diazaspiro[4.4]non-3-yl)acetamide] | 322 nM | nM (0.96) | – | –
2 | O=C(CN1C(=O)C2CC=CCC2C1=O)Nc1ccc(Br)cc1 (stereo not shown) [N-(4-bromophenyl)-1,3,3a,4,7,7a-hexahydro-1,3-dioxo-2H-isoindole-2-acetamide] | – | (0.98) | – | –
3 | O=C(Nc1ccc(Br)cc1)N[C@H](Cc1ccccc1)C(=O)O [(2R)-2-({[(4-bromophenyl)amino]carbonyl}amino)-3-phenylpropanoic acid] | 1820 nM | nM (0.99) | – | –
4 | CCC1(C)NC(=O)N(NC(=O)Nc2ccc(Cl)cc2)C1=O (stereo not shown) [1-(4-chlorophenyl)-3-(4-ethyl-4-methyl-2,5-dioxoimidazolidin-1-yl)urea] | 157 nM | nM (0.96) | – | –
5 | CCC1(CC)NC(=O)N(CC(=O)Nc2ccc(Br)cc2)C1=O [N-(4-bromophenyl)-2-(4,4-diethyl-2,5-dioxoimidazolidin-1-yl)acetamide] | 96 nM | nM (0.98) | – | –
6 | O=C(CN1C(=O)C2C3C=CC(C3)C2C1=O)Nc1ccc(Br)cc1 (stereo not shown) [N-(4-bromophenyl)-1,3,3a,4,7,7a-hexahydro-1,3-dioxo-4,7-methano-2H-isoindole-2-acetamide] | – | (0.90) | – | –
7 | O=C(Nc1cccnc1)NC(Cc1ccccc1)C(=O)O (stereo not shown) [3-phenyl-2-{[(pyridin-3-ylamino)carbonyl]amino}propanoic acid] | > 10000 nM | – | – | –
8 | O=C(CN1C(=O)NC2(CCCCC2)C1=O)Nc1ccc(Br)cc1 [N-(4-bromophenyl)-2-(2,4-dioxo-1,3-diazaspiro[4.5]dec-3-yl)acetamide] | 738 nM | nM (0.89) | – | –
9 | O=C(CN1C(=O)NC2(CCCCCC2)C1=O)Nc1ccc(Br)cc1 [N-(4-bromophenyl)-2-(2,4-dioxo-1,3-diazaspiro[4.6]undec-3-yl)acetamide] | 679 nM | nM (0.96) | – | –
10 | CC1(C2CC2)NC(=O)N(CC(=O)Nc2ccc(Br)cc2)C1=O (stereo not shown) [N-(4-bromophenyl)-2-(4-cyclopropyl-4-methyl-2,5-dioxoimidazolidin-1-yl)acetamide] | 166 nM | nM (0.84) | – | –
11 | COc1ccc(NC(=O)NC(Cc2ccccc2)C(=O)O)cc1OC (stereo not shown) [2-({[(3,4-dimethoxyphenyl)amino]carbonyl}amino)-3-phenylpropanoic acid] | 2790 nM | nM (0.72) | – | –
12 | CC(C)[C@H](NC(=O)Nc1ccc(Br)cc1F)C(=O)O [(2S)-2-({[(4-bromo-2-fluorophenyl)amino]carbonyl}amino)-3-methylbutanoic acid] | 152 nM | nM (0.91) | – | –
13 | CCC1(c2ccccc2)NC(=O)N(CC(=O)Nc2ccc(Br)cc2)C1=O (stereo not shown) [N-(4-bromophenyl)-2-(4-ethyl-2,5-dioxo-4-phenylimidazolidin-1-yl)acetamide] | 523 nM | nM (0.83) | – | –
14 | CCC[C@H](NC(=O)[C@H](CC(C)C)NC(=O)Nc1ccc(Br)cc1)C(=O)OC(C)(C)C [Compound 100, tert-butyl (2S)-2-{[(2S)-2-{[(4-bromophenyl)carbamoyl]amino}-4-methylpentanoyl]amino} pentanoate] | – | – | nM (1.0) | –
15 | CCC1(C(C)C)NC(=O)N(NC(=O)Nc2ccc(Br)cc2)C1=O (stereo not shown) [Compound 4, 1-(4-bromophenyl)-3-[4-ethyl-2,5-dioxo-4-(propan-2-yl)imidazolidin-1-yl]urea] | – | – | (0.90) | –
16 | NC(=O)C1C(C(=O)Nc2ccc(Br)cc2)C2C=CC1C21CC1 (stereo not shown) [Compound 26, N-(4-bromophenyl) spiro[bicyclo[2.2.1]heptane-7,1′-cyclopropane]-5-ene-2,3-dicarboxamide] | – | – | nM (0.91) | –
17 | CC1(CCc2cccc(O)c2)NC(=O)N(NC(=O)Nc2ccc(Br)cc2F)C1=O (stereo not shown) [Compound 107, 1-(4-bromo-2-fluorophenyl)-3-{4-[2-(3-hydroxyphenyl)ethyl]-4-methyl-2,5-dioxoimidazolidin-1-yl}urea] | – | – | nM (0.79) | EC50 (FPR2 [2]): 2.2 nM
18 | CC(C)C[C@H](NC(=O)Nc1ccc(Br)cc1)C(=O)NCC(N)=O [Compound 77, (2S)-N-(2-amino-2-oxoethyl)-2-{[(4-bromophenyl)carbamoyl]amino}-4-methylpentanamide] | – | – | nM (1.0) | EC50 (FPR2 [2]): 1.1 nM
19 | O=C(Nc1ccc(I)cc1)N[C@@H](Cc1ccccc1)C(=O)O [Compound 51, (2S)-2-{[(4-iodophenyl)carbamoyl]amino}-3-phenylpropanoic acid] | – | – | nM (1.0) | –
20 | CCC[C@H](NC(=O)Nc1ccc(Br)cc1)C(=O)O [Compound 70, (2S)-2-{[(4-bromophenyl)carbamoyl]amino} pentanoic acid] | – | – | nM (1.0) | EC50 (FPR2 [2]): 7.1 nM
21 | CC(C)C1(CC(=O)NC(CO)CO)NC(=O)N(NC(=O)Nc2ccc(Br)cc2)C1=O (stereo not shown) [Compound 142, 2-[1-{[(4-bromophenyl)carbamoyl]amino}-2,5-dioxo-4-(propan-2-yl)imidazolidin-4-yl]-N-(1,3-dihydroxypropan-2-yl)acetamide] | – | – | nM (0.92) | EC50 (FPR2 [2]): 13.8 nM
22 | CCC1(C(C)C)NC(=O)N(NC(=O)Nc2ccc(Br)cc2)C1=O (single isomer, unassigned; (-)) [Compound 67, (−)1-(4-bromophenyl)-3-[4-ethyl-2,5-dioxo-4-(propan-2-yl)imidazolidin-1-yl]urea] | – | – | nM (1.0) | –
23 | CCC[C@H](NC(=O)Nc1ccc(Br)cc1)C(=O)NCP(=O)(O)OCC [Compound 123, ethyl hydrogen ({[(2S)-2-{[(4-bromophenyl)carbamoyl]amino}pentanoyl]amino}methyl) phosphonate] | – | – | nM (0.96) | –
24 | CCC1(CCc2ccccc2C(=O)O)NC(=O)N(NC(=O)Nc2ccc(Br)cc2)C1=O (stereo not shown) [Compound 143, 2-[2-(1-{[(4-bromophenyl)carbamoyl]amino}-4-ethyl-2,5-dioxoimidazolidin-4-yl)ethyl]benzoic acid] | – | – | nM (1.0) | EC50 (FPR2 [2]): 17.2 nM
25 | O=C(O)[C@@H]1C2CCC([C@@H]1C(=O)Nc1ccc(Br)cc1)C21CC1 (relative stereo) [Compound 14, rel-(2R,3S)-3-[(4-bromophenyl)carbamoyl] spiro[bicyclo[2.2.1]heptane-7,1′-cyclopropane]-2-carboxylic acid] | – | – | nM (0.90) | EC50 (FPR2 [2]): 4 nM
26 | CC1(C)C2CCC1C(C(=O)Nc1ccc(I)cc1)C2C(=O)O (stereo not shown) [Compound 22, 3-[(4-iodophenyl)carbamoyl]-7,7-dimethylbicyclo[2.2.1]heptane-2-carboxylic acid] | – | – | nM (0.97) | –
27 | CC(C)C[C@H](NC(=O)Nc1ccc(Br)cc1)C(=O)NC(C)(C)C(=O)O [Compound 6, 2-{[(2S)-2-{[(4-bromophenyl)carbamoyl]amino}-4-methylpentanoyl]amino}-2-methylpropanoic acid] | – | – | (0.91) | EC50 (FPR2 [2]; unit inferred): 1.66 nM
28 | CCOC(=O)C1CCC2(CC1)NC(=O)N(NC(=O)Nc1ccc(Br)cc1)C2=O (stereo not shown) [Compound 153, ethyl 3-{[(4-bromophenyl)carbamoyl]amino}-2,4-dioxo-1,3-diazaspiro[4.5]decane-8-carboxylate] | – | – | nM (0.99) | EC50 (FPR2 [2]): 12 nM
